Results: patent US9695155B2, “Herbicidal substituted pyrimidinyloxy benzene compounds” (E. I. DU PONT DE NEMOURS AND COMPANY, priority 2013, dated 2017)

Assays:
morningglory = assay: Test E preemergence; type: in vivo, Ipomoea coccinea; settings: for Morningglory plant response rating: scale 0 to 100 (0 no effect, 100 complete control); for Plant response rating, Morningglory: scale 0 to 100, 0 no effect, 100 complete control
How it was run: (§1)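 Response was scored visually on a 0-100 scale (100 = complete control) versus controls after 14 to 21 days in the greenhouse. Test chemicals, formulated with surfactant in a non-phytotoxic solvent mixture, had been applied preemergence to seeds in silt loam soil or postemergence to 1- to 4-leaf plants in potting medium.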

yellow nutsedge = assay: Test E preemergence; type: in vivo, Cyperus esculentus; settings: for Nutsedge, Yellow plant response rating: scale 0 to 100 (0 no effect, 100 complete control); for Plant response rating, Nutsedge, Yellow: scale 0 to 100, 0 no effect, 100 complete control
How it was run: as §1

johnsongrass = assay: Test E preemergence; type: in vivo, Sorghum halepense; settings: for Johnsongrass plant response rating: scale 0 to 100 (0 no effect, 100 complete control); for Plant response rating, Johnsongrass: scale 0 to 100, 0 no effect, 100 complete control
Excerpt: (§2) Seeds of plant species selected from corn (Zea mays), soybean (Glycine max), velvetleaf (Abutilon theophrasti), lambsquarters (Chenopodium album), wild poinsettia (Euphorbia heterophylla), palmer pigweed (Amaranthus palmeri), waterhemp (common waterhemp, Amaranthus rudis), surinam grass (Brachiaria decumbens), large (Lg) crabgrass (Digitaria sanguinalis), Brazilian crabgrass (Digitaria horizontalis), fall panicum (Panicum dichotomiflorum), giant foxtail (Setaria faberii), green foxtail (Setaria viridis), goosegrass (Eleusine indica), johnsongrass (Sorghum halepense), ragweed (common ragweed, Ambrosia elatior), barnyardgrass (Echinochloa crus-galli), sandbur (southern sandbur, Cenchrus echinatus), arrowleaf sida (Sida rhombifolia), Italian ryegrass (Lolium multiflorum), dayflower (Virginia (VA) dayflower, Commelina virginica), field bindweed (Convolvulus arvensis), morningglory (Ipomoea coccinea), nightshade (eastern black nightshade, Solanum ptycanthum), kochia (Kochia scoparia), yellow nutsedge (Cyperus esculentus), cocklebur (common cocklebur, Xanthium strumarium), smartweed (ladysthumb smartweed, and hairy beggarticks (Bidens pilosa), were planted into a silt loam soil and treated preemergence with test chemicals formulated in a non-phytotoxic solvent mixture which included a surfactant.
(§3) At the same time, plants from these crop and weed species and also horseweed (Canada horseweed, Conyza canadensis), waterhemp_RES1, (ALS & Triazine resistant common waterhemp, Amaranthus rudis), and waterhemp_RES2, (ALS & HPPD resistant common waterhemp, Amaranthus rudis) were planted in pots containing Redi-Earth® planting medium (Scotts Company, 14111 Scottslawn Road, Marysville, Ohio 43041) comprising spaghnum peat moss, vermiculite, wetting agent and starter nutrients were treated with postemergence applications of test chemicals formulated in the same manner. Plants ranged in height from 2 to 18 cm for postemergence treatments (1- to 4-leaf stage). Treated plants and controls were maintained in a greenhouse for 14 to 21 days, after which time all species were compared to controls and visually evaluated. Plant response ratings, summarized in Table E, are based on a scale of 0 to 100 where 0 is no effect and 100 is complete control. A dash (-) response means no test result.

Brazilian crabgrass = assay: Test E preemergence; type: in vivo, Digitaria horizontalis; settings: for Crabgrass, Brazil plant response rating: scale 0 to 100 (0 no effect, 100 complete control); for Plant response rating, Crabgrass, Brazil: scale 0 to 100, 0 no effect, 100 complete control
Excerpt: as §2, §3

nightshade = assay: Test E preemergence; type: in vivo, Solanum ptycanthum; settings: for Nightshade plant response rating: scale 0 to 100 (0 no effect, 100 complete control); for Plant response rating, Nightshade: scale 0 to 100, 0 no effect, 100 complete control
Excerpt: as §2, §3

hairy beggarticks [1] = assay: Test E preemergence; type: in vivo, Bidens pilosa; settings: for Beggarticks plant response rating: scale 0 to 100 (0 no effect, 100 complete control); for Plant response rating, Beggarticks: scale 0 to 100, 0 no effect, 100 complete control
Excerpt: as §2, §3

palmer pigweed = assay: Test E preemergence; type: in vivo, Amaranthus palmeri; settings: for Pigweed, Palmer plant response rating: scale 0 to 100 (0 no effect, 100 complete control); for Plant response rating, Pigweed, Palmer: scale 0 to 100, 0 no effect, 100 complete control
Excerpt: as §2, §3

ducksalad = assay: Test C flooded paddy test; type: in vivo, Heteranthera limosa; settings: Flood, scale 0 to 100 (0 no effect, 100 complete control), 13 to 15 days
How it was run: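 Greenhouse pots flooded to 3 cm above soil at time of treatment received compound via the water, which stayed at that level.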

Italian ryegrass = assay: Test A preemergence; type: in vivo, Lolium multiflorum
How it was run: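 Visual 0–100 rating (100 = complete control) taken about 10 d post-treatment relative to untreated checks. Preemergence: directed soil spray on sown loam/sand pots. Postemergence: seedlings 2–10 cm, 1–2 leaf. Non-phytotoxic solvent formulation with surfactant.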

dayflower = assay: Test E postemergence; type: in vivo, Commelina virginica; settings: Postemergence, scale 0 to 100
How it was run: as §1

sandbur = assay: Test E postemergence; type: in vivo, Cenchrus echinatus; settings: Postemergence, scale 0 to 100
How it was run: as §1

hairy beggarticks [2] = assay: Test E postemergence; type: in vivo, Bidens pilosa; settings: Postemergence, scale 0 to 100
How it was run: as §1

field bindweed = assay: Test E postemergence; type: in vivo, Convolvulus arvensis; settings: Postemergence, scale 0 to 100
How it was run: as §1

soybean = assay: Test E postemergence; type: in vivo, Glycine max; settings: Postemergence, scale 0 to 100
How it was run: as §1

## Fc1cnc(Oc2cccc(C(F)F)c2-n2cc(C(F)(F)F)cn2)nc1 [Compound 164]
morningglory; 31 g ai/ha
  Morningglory plant response rating: 65
morningglory; 62 g ai/ha
  Morningglory plant response rating: 35
morningglory; 125 g ai/ha
  Plant response rating, Morningglory: 98
Yellow nutsedge; 31 g ai/ha
  Nutsedge, Yellow plant response rating: 0
Yellow nutsedge; 62 g ai/ha
  Nutsedge, Yellow plant response rating: 0
Yellow nutsedge; 125 g ai/ha
  Plant response rating, Nutsedge, Yellow: 20
johnsongrass; 31 g ai/ha
  Johnsongrass plant response rating: 0
johnsongrass; 62 g ai/ha
  Johnsongrass plant response rating: 10
johnsongrass; 125 g ai/ha
  Plant response rating, Johnsongrass: 70
Brazilian crabgrass; 16 g ai/ha
  Crabgrass, Brazil plant response rating: 0
Brazilian crabgrass; 31 g ai/ha
  Crabgrass, Brazil plant response rating: 20
Brazilian crabgrass; 62 g ai/ha
  Crabgrass, Brazil plant response rating: 75
Brazilian crabgrass; 125 g ai/ha
  Plant response rating, Crabgrass, Brazil: 100
nightshade; 31 g ai/ha
  Nightshade plant response rating: 50
nightshade; 62 g ai/ha
  Nightshade plant response rating: 80
nightshade; 125 g ai/ha
  Plant response rating, Nightshade: 95
Hairy beggarticks [1]; 16 g ai/ha, preemergence
  Beggarticks plant response rating: 0
Hairy beggarticks [1]; 31 g ai/ha, preemergence
  Beggarticks plant response rating: 0
Hairy beggarticks [1]; 62 g ai/ha, preemergence
  Beggarticks plant response rating: 20
Hairy beggarticks [1]; preemergence, 125 g ai/ha
  Plant response rating, Beggarticks: 20
Palmer pigweed; 31 g ai/ha
  Pigweed, Palmer plant response rating: 0
Palmer pigweed; 62 g ai/ha
  Pigweed, Palmer plant response rating: 75
Palmer pigweed; 125 g ai/ha
  Plant response rating, Pigweed, Palmer: 80
ducksalad; 31 g ai/ha
  Plant response rating, Ducksalad: 0
ducksalad; 62 g ai/ha
  Plant response rating, Ducksalad: 0
ducksalad; 125 g ai/ha
  Plant response rating, Ducksalad: 75
ducksalad; 250 g ai/ha
  Plant response rating, Ducksalad: 95

## Cc1cnc(Oc2cccc(C#N)c2-n2cc(C#N)cn2)nc1 [Compound 90]
morningglory; 16 g ai/ha
  Morningglory plant response rating: 0
morningglory; 31 g ai/ha
  Morningglory plant response rating: 0
morningglory; 62 g ai/ha
  Morningglory plant response rating: 20
morningglory; 125 g ai/ha
  Plant response rating, Morningglory: 35
Yellow nutsedge; 16 g ai/ha
  Nutsedge, Yellow plant response rating: 0
Yellow nutsedge; 31 g ai/ha
  Nutsedge, Yellow plant response rating: 0
Yellow nutsedge; 62 g ai/ha
  Nutsedge, Yellow plant response rating: 0
Yellow nutsedge; 125 g ai/ha
  Plant response rating, Nutsedge, Yellow: 0
johnsongrass; 16 g ai/ha
  Johnsongrass plant response rating: 0
johnsongrass; 31 g ai/ha
  Johnsongrass plant response rating: 0
johnsongrass; 62 g ai/ha
  Johnsongrass plant response rating: 0
johnsongrass; 125 g ai/ha
  Plant response rating, Johnsongrass: 15
Brazilian crabgrass; 16 g ai/ha
  Crabgrass, Brazil plant response rating: 0
Brazilian crabgrass; 31 g ai/ha
  Crabgrass, Brazil plant response rating: 20
Brazilian crabgrass; 62 g ai/ha
  Crabgrass, Brazil plant response rating: 50
Brazilian crabgrass; 125 g ai/ha
  Plant response rating, Crabgrass, Brazil: 80
Italian ryegrass; 125 g ai/ha, 0 to 100 scale where 0 is no effect and 100 is complete control
  Plant response rating, Ryegrass, Italian: 0
Italian ryegrass; 500 g ai/ha, 0 to 100 scale, 0 no effect, 100 complete control, approx. 10 days
  Ryegrass, Italian plant response rating: 30
nightshade; 16 g ai/ha
  Nightshade plant response rating: 10
nightshade; 31 g ai/ha
  Nightshade plant response rating: 10
nightshade; 62 g ai/ha
  Nightshade plant response rating: 80
nightshade; 125 g ai/ha
  Plant response rating, Nightshade: 80
Hairy beggarticks [1]; 16 g ai/ha, preemergence
  Beggarticks plant response rating: 0
Hairy beggarticks [1]; 31 g ai/ha, preemergence
  Beggarticks plant response rating: 5
Hairy beggarticks [1]; Preemergence, 62 g ai/ha
  Plant response rating, Beggarticks: 10
Hairy beggarticks [1]; preemergence, 125 g ai/ha
  Plant response rating, Beggarticks: 30
Palmer pigweed; 16 g ai/ha
  Pigweed, Palmer plant response rating: 0
Palmer pigweed; 31 g ai/ha
  Pigweed, Palmer plant response rating: 0
Palmer pigweed; 62 g ai/ha
  Pigweed, Palmer plant response rating: 0
Palmer pigweed; 125 g ai/ha
  Plant response rating, Pigweed, Palmer: 65

## N#Cc1cccc(Oc2ncc(Cl)cn2)c1-n1cc(Cl)cn1 [Compound 72]
dayflower; 62 g ai/ha
  Plant response rating, Dayflower, VA: 50
dayflower; 125 g ai/ha
  Plant response rating, Dayflower, VA: 60
morningglory; 16 g ai/ha
  Morningglory plant response rating: 0
morningglory; 31 g ai/ha
  Morningglory plant response rating: 0
morningglory; 62 g ai/ha
  Morningglory plant response rating: 15
morningglory; 125 g ai/ha
  Plant response rating, Morningglory: 15
morningglory; 250 g ai/ha
  Plant response rating, Morningglory: 35
sandbur; 62 g ai/ha
  Plant response rating, Sandbur: 0
sandbur; 125 g ai/ha
  Plant response rating, Sandbur: 0
Yellow nutsedge; 16 g ai/ha
  Nutsedge, Yellow plant response rating: 0
Yellow nutsedge; 31 g ai/ha
  Nutsedge, Yellow plant response rating: 0
Yellow nutsedge; 62 g ai/ha
  Nutsedge, Yellow plant response rating: 0
Yellow nutsedge; 125 g ai/ha
  Plant response rating, Nutsedge, Yellow: 25
Yellow nutsedge; 250 g ai/ha
  Plant response rating, Nutsedge, Yellow: 50
johnsongrass; 16 g ai/ha
  Johnsongrass plant response rating: 0
johnsongrass; 31 g ai/ha
  Johnsongrass plant response rating: 0
johnsongrass; 62 g ai/ha
  Johnsongrass plant response rating: 40
johnsongrass; 125 g ai/ha
  Plant response rating, Johnsongrass: 95
johnsongrass; 250 g ai/ha
  Plant response rating, Johnsongrass: 98
Hairy beggarticks [2]; 62 g ai/ha
  Plant response rating, Beggarticks: 70
Hairy beggarticks [2]; 125 g ai/ha
  Plant response rating, Beggarticks: 80
Brazilian crabgrass; 16 g ai/ha
  Crabgrass, Brazil plant response rating: 90
Brazilian crabgrass; 31 g ai/ha
  Crabgrass, Brazil plant response rating: 98
Brazilian crabgrass; 62 g ai/ha
  Crabgrass, Brazil plant response rating: 100
Brazilian crabgrass; 125 g ai/ha
  Plant response rating, Crabgrass, Brazil: 100
Brazilian crabgrass; 250 g ai/ha
  Plant response rating, Crabgrass, Brazil: 100
nightshade; 16 g ai/ha
  Nightshade plant response rating: 0
nightshade; 31 g ai/ha
  Nightshade plant response rating: 65
nightshade; 62 g ai/ha
  Nightshade plant response rating: 100
nightshade; 125 g ai/ha
  Plant response rating, Nightshade: 98
nightshade; 250 g ai/ha
  Plant response rating, Nightshade: 100
Hairy beggarticks [1]; 16 g ai/ha, preemergence
  Beggarticks plant response rating: 0
Hairy beggarticks [1]; 31 g ai/ha, preemergence
  Beggarticks plant response rating: 0
Hairy beggarticks [1]; Preemergence, 62 g ai/ha
  Plant response rating, Beggarticks: 5
Hairy beggarticks [1]; preemergence, 125 g ai/ha
  Plant response rating, Beggarticks: 5
Hairy beggarticks [1]; preemergence, 250 g ai/ha
  Plant response rating, Beggarticks: 30
Field bindweed; 62 g ai/ha
  Plant response rating, Field Bindweed: 70
Field bindweed; 125 g ai/ha
  Plant response rating, Field Bindweed: 80
soybean; 62 g ai/ha
  Plant response rating, Soybean: 95
soybean; 125 g ai/ha
  Plant response rating, Soybean: 95
Palmer pigweed; 16 g ai/ha
  Pigweed, Palmer plant response rating: 95
Palmer pigweed; 31 g ai/ha
  Pigweed, Palmer plant response rating: 100
Palmer pigweed; 62 g ai/ha
  Pigweed, Palmer plant response rating: 100
Palmer pigweed; 125 g ai/ha
  Plant response rating, Pigweed, Palmer: 100
Palmer pigweed; 250 g ai/ha
  Plant response rating, Pigweed, Palmer: 100
